# Test results from patent US20240217946A1, “ANTIDEPRESSANT AND ANXIOLYTIC SUBSTITUTED CINNAMAMIDE COMPOUND” (TASLY PHARMACEUTICAL GROUP CO., LTD., priority 2021, published 2024).
# “And” between values parts separate entries of the source, which are not always exact repeats. Equal values may be shown once. Read-outs that look alike come from different tables or passages of the source.
# Experiments:
# [1] = Pharmacokinetics and absolute bioavailability in rats (LC-MS/MS); assay type: in vivo; details: rat; for MRT inf: read-out: MRT0-∞
# Source text: A LC-MS/MS method for determination of compound I-5 and compound M2 in rat plasma was established through experiments to investigate the pharmacokinetic characteristics and absolute bioavailability of compounds in rats.
# 20 SPF-grade SD male rats (body weight 220±20 g), purchased from Beijing Vital River Laboratory Animal Technology Co., Ltd.
# • Chromatographic column: waters BEH C18 1.7 μm; 2.1×100 mm Column • Internal standard: D-I-5 (deuterated compound I-5, with the following structural formula)
# 20 SD rats were randomly divided into 4 groups, with 5 rats in each group. […]
# 50 μL plasma was taken, 50 μL D-I-5 (20 ng/mL dissolved in acetonitrile) was added, the mixture was whirled for 30 s, then 100 μL acetonitrile was added; the mixture was fully whirled for 2 min, and was centrifuged at 4° C. at 12000 r/min for 3 min, 50 μL supernatant was taken, 50 μL aqueous solution was added for dilution, followed by whirling for Imin, and 4 μL sample was injected.
# The mean plasma concentration-time curves of rats after oral intragastric administration and intravenous administration were respectively shown in FIGS. 8 and 9. Data were processed using DAS 3.0 pharmacokinetic software (Chinese Professional Committee of Mathematical Pharmacology, Shanghai, China), and statistical moment parameters of the non-compartmental model were calculated, Cmax and Tmax being measured values.
# ICR mice = assay: Elevated plus maze experiment in mice, single administration; assay type: in vivo; details: for OE % / OT %: 30 min after single administration
# [2] = male, SD, plasma, po, intragastric administration 12.5 mg/kg, n = 5
# [3] = male, SD, plasma, intravenous administration 2.5 mg/kg, n = 5
# [4] = male, Sprague-Dawley (SD), plasma, po, intragastric administration 12.5 mg/kg, n = 5
# [5] = male, Sprague-Dawley (SD), plasma, intravenous administration 2.5 mg/kg, n = 5
# [6] = comparative study (Table 13), 20 mg/kg i.g.
# [7] = dosage exploration study (Table 12), 5 mg/kg i.g.
# [8] = dosage exploration study (Table 12), 10 mg/kg i.g.
# [9] = dosage exploration study (Table 12), 20 mg/kg i.g.
smiles,measurement,setting,value
NC(=O)/C=C/c1cc2c(c(C(F)(F)F)c1)OCO2 [Compound M2],bioavailability,"[1]; male, SD, plasma, oral, absolute bioavailability, intragastric 12.5 mg/kg vs intravenous 2.5 mg/kg, read-out: F (bioavailability, %)",40.8%
same,AUC(0-t),[1]; [2],1080 ± 373 ng·h/mL
same,Tmax,[1]; [2],21 min
same,half-life,[1]; [2],61.8 ± 20.4 min
same,C0,[1]; [3],1640 ± 319 ng/mL
same,half-life,[1]; [3],14.4 ± 1.8 min
same,concentration at 0.08 h,"[1]; male, SD, plasma, iv, 2.5 mg/kg, single intravenous 2.5 mg/kg, 0.08 h, read-out: Plasma concentration, Mean",1210 ng/mL
same,concentration at 0.08 h,"[1]; male, SD, plasma, iv, 2.5 mg/kg, single intravenous 2.5 mg/kg, 0.08 h, read-out: Plasma concentration, individual rats",1090 ng/mL
same,concentration at 0.25 h,"[1]; male, SD, plasma, iv, 2.5 mg/kg, single intravenous 2.5 mg/kg, 0.25 h, read-out: Plasma concentration, Mean",639 ng/mL
same,concentration at 0.25 h,"[1]; male, SD, plasma, iv, 2.5 mg/kg, single intravenous 2.5 mg/kg, 0.25 h, read-out: Plasma concentration, individual rats",575 ng/mL
same,concentration at 0.5 h,"[1]; male, SD, plasma, iv, 2.5 mg/kg, single intravenous 2.5 mg/kg, 0.50 h",315 ng/mL
same,concentration at 1 h,"[1]; male, SD, plasma, iv, 2.5 mg/kg, single intravenous 2.5 mg/kg, 1 h, read-out: Plasma concentration, Mean",79 ng/mL
same,concentration at 2 h,"[1]; male, SD, plasma, iv, 2.5 mg/kg, single intravenous 2.5 mg/kg, 2 h",5.46 ng/mL
same,concentration at 3 h,"[1]; male, SD, plasma, iv, 2.5 mg/kg, single intravenous 2.5 mg/kg, 3 h",3.21 ng/mL
same,concentration at 0.08 h,"[1]; male, SD, plasma, oral, 12.5 mg/kg, single intragastric 12.5 mg/kg, 0.08 h, read-out: Plasma concentration, Mean",191 ng/mL
same,concentration at 0.25 h,"[1]; male, SD, plasma, oral, 12.5 mg/kg, single intragastric 12.5 mg/kg, 0.25 h, read-out: Plasma concentration, Mean",398 ng/mL
same,concentration at 0.5 h,"[1]; male, SD, plasma, oral, 12.5 mg/kg, single intragastric 12.5 mg/kg, 0.50 h",387 ng/mL
same,concentration at 1 h,"[1]; male, SD, plasma, oral, 12.5 mg/kg, single intragastric 12.5 mg/kg, 1 h, read-out: Plasma concentration, Mean",211 ng/mL
same,concentration at 1 h,"[1]; male, SD, plasma, oral, 12.5 mg/kg, single intragastric 12.5 mg/kg, 1 h, read-out: Plasma concentration, individual rats",145 ng/mL
same,concentration at 2 h,"[1]; male, SD, plasma, oral, 12.5 mg/kg, single intragastric 12.5 mg/kg, 2 h",132 ng/mL
same,concentration at 3 h,"[1]; male, SD, plasma, oral, 12.5 mg/kg, single intragastric 12.5 mg/kg, 3 h",134 ng/mL
same,concentration at 4 h,"[1]; male, SD, plasma, oral, 12.5 mg/kg, single intragastric 12.5 mg/kg, 4 h, read-out: Plasma concentration, Mean",164 ng/mL
same,concentration at 6 h,"[1]; male, SD, plasma, oral, 12.5 mg/kg, single intragastric 12.5 mg/kg, 6 h",86.7 ng/mL
same,concentration at 8 h,"[1]; male, SD, plasma, oral, 12.5 mg/kg, single intragastric 12.5 mg/kg, 8 h, read-out: Plasma concentration, Mean",2.07 ng/mL
same,concentration at 8 h,"[1]; male, SD, plasma, oral, 12.5 mg/kg, single intragastric 12.5 mg/kg, 8 h, read-out: Plasma concentration, individual rats",5.38 ng/mL
same,Cmax,"[1]; male, SD, plasma, po, 12.5 mg/kg, intragastric administration 12.5 mg/kg, n = 5, read-out: Cmax",425 ± 137 ng/mL
same,AUC(0-inf),[1]; [4],1120 ± 367 ng·h/mL
same,AUC(0-t),[1]; [4],1080 ± 373 ng·h/mL
same,MRT inf,[1]; [4],151 ± 36.6 min
same,AUC(0-inf),[1]; [5],532 ± 127 ng·h/mL
same,AUC(0-t),[1]; [5],529 ± 130 ng·h/mL
same,MRT inf,[1]; [5],18.6 ± 3.6 min
same,Cmax,"[1]; intragastric administration 12.5 mg/kg, n = 5, 12.5 mg/kg",425.47 ± 136.97 ng/mL
same,"Plasma concentration, individual rats","[1]; single intragastric 12.5 mg/kg, 0.08 h",78.15 ng/mL and 127.05 ng/mL and 78.40 ng/mL and 240.77 ng/mL and 433.00 ng/mL
same,"Plasma concentration, individual rats","[1]; single intragastric 12.5 mg/kg, 0.25 h",213.75 ng/mL and 487.46 ng/mL and 212.80 ng/mL and 494.43 ng/mL and 582.67 ng/mL
same,"Plasma concentration, individual rats","[1]; single intragastric 12.5 mg/kg, 0.50 h",270.87 ng/mL and 411.67 ng/mL and 291.90 ng/mL and 416.38 ng/mL and 542.56 ng/mL
same,"Plasma concentration, individual rats","[1]; single intragastric 12.5 mg/kg, 1 h",184.82 ng/mL and 165.92 ng/mL and 270.26 ng/mL and 288.12 ng/mL
same,"Plasma concentration, individual rats","[1]; single intragastric 12.5 mg/kg, 2 h",90.66 ng/mL and 71.40 ng/mL and 131.47 ng/mL and 231.27 ng/mL and 133.28 ng/mL
same,"Plasma concentration, individual rats","[1]; single intragastric 12.5 mg/kg, 3 h",175.71 ng/mL and 60.26 ng/mL and 194.74 ng/mL and 114.91 ng/mL and 122.55 ng/mL
same,"Plasma concentration, individual rats","[1]; single intragastric 12.5 mg/kg, 4 h",268.66 ng/mL and 107.99 ng/mL and 188.58 ng/mL and 66.64 ng/mL and 188.12 ng/mL
same,"Plasma concentration, individual rats","[1]; single intragastric 12.5 mg/kg, 6 h",57.55 ng/mL and 48.74 ng/mL and 11.84 ng/mL and 15.99 ng/mL and 299.46 ng/mL
same,"Plasma concentration, individual rats","[1]; single intragastric 12.5 mg/kg, 8 h",BLOQ (3×) and 3.64 ng/mL
same,"Plasma concentration, individual rats","[1]; single intravenous 2.5 mg/kg, 0.08 h, 2.5 mg/kg",1221.94 ng/mL and 1589.64 ng/mL and 991.98 ng/mL and 1170.61 ng/mL
same,"Plasma concentration, individual rats","[1]; single intravenous 2.5 mg/kg, 0.25 h, 2.5 mg/kg",742.62 ng/mL and 807.81 ng/mL and 497.57 ng/mL and 574.42 ng/mL
same,"Plasma concentration, individual rats","[1]; single intravenous 2.5 mg/kg, 0.50 h, 2.5 mg/kg",281.81 ng/mL and 435.1 ng/mL and 406.94 ng/mL and 201.98 ng/mL and 248.89 ng/mL
same,"Plasma concentration, individual rats","[1]; single intravenous 2.5 mg/kg, 1 h, 2.5 mg/kg",74.30 ng/mL and 130.96 ng/mL and 92.59 ng/mL and 39.74 ng/mL and 57.32 ng/mL
same,"Plasma concentration, individual rats","[1]; single intravenous 2.5 mg/kg, 2 h, 2.5 mg/kg",4.62 ng/mL and 12.27 ng/mL and 2.23 ng/mL and BLOQ and 2.72 ng/mL
same,"Plasma concentration, individual rats","[1]; single intravenous 2.5 mg/kg, 3 h, 2.5 mg/kg",2.035 ng/mL and 4.403 ng/mL and BLOQ (3×)
same,"Plasma concentration, individual rats","[1]; single intravenous 2.5 mg/kg, 4 h",BLOQ
same,"Plasma concentration, individual rats","[1]; single intravenous 2.5 mg/kg, 6 h",BLOQ
same,"Plasma concentration, individual rats","[1]; single intravenous 2.5 mg/kg, 8 h",BLOQ
same,OE %,ICR mice; [6],57.94 ± 11.72 %
same,OT %,ICR mice; [6],57.36 ± 8.77 %
same,anxiolytic activity in elevated plus maze vs solvent control group,"ICR mice; comparative study, single intragastric administration of 20 mg/kg",significant anxiolytic activity
same,OE %,ICR mice; [7],35.46 ± 10.13%
same,OT %,ICR mice; [7],38.52 ± 12.19%
same,OE %,ICR mice; [8],36.13 ± 14.12%
same,OT %,ICR mice; [8],35.92 ± 13.11%
same,OE %,ICR mice; [9],38.47 ± 7.13 %
same,OT %,ICR mice; [9],44.60 ± 9.33 %
same,effective dosage for single administration (anxiolytic),"ICR mice; mice, elevated plus maze",20 mg/kg
